pIC50: −log10 of the molar value.
Columns and labels:
[1] = tested on: 45Ca2+-labelled bones (calvaria) of neonatal mice; test: Parathyroid hormone-stimulated 45Ca2+ release from cultured mouse calvaria; type: cell-based; details: 24 hour period, PTH-stimulated
Description: (§1) Treatment of Osteo Arthritis with Mu-Phe-HPhe-O-Ph. ^45 Ca^2+ -labelled bones (calvaria) of neonatal mice were maintained in culture. The effect of the test compound on the rate of parathyroid hormone-stimulated ^45 Ca^2+ release was measured over a 24 hour period. An inhibitor of bone resorption (at maximal concentrations) would be expected to inhibit this rate by approximately 70%. The nature of the residual, uninhibitable ^45 Ca^2+ -release is not known but could represent chemical exchange of ^45 Ca^2+ with the medium. Mu-Phe-HPhe-O-Ph was dissolved in dimethylsulphoxide which was present in the incubation at concentrations <0.1%.
as §1, with “Mu-Leu-HPhe-O-Ph.” for “Mu-Phe-HPhe-O-Ph.”, “Mu-Leu-HPhe-O-Ph” for “Mu-Phe-HPhe-O-Ph”
as §1, with “Mu-Tyr(OMe)-HPhe-O-Ph.” for “Mu-Phe-HPhe-O-Ph.”, “Mu-Tyr(OMe)-HPhe-O-Ph” for “Mu-Phe-HPhe-O-Ph”
as §1, with “Z-Phe-Ala-O-Ph.” for “Mu-Phe-HPhe-O-Ph.”, “Z-Phe-Ala-O-Ph” for “Mu-Phe-HPhe-O-Ph”
as §1, with “Mu-Tyr(OMe)-HPhe-O-Ph.” for “Mu-Phe-HPhe-O-Ph.”, “labelled” for “-labelled”, “Mu-Tyr(OMe)-HPhe-O-Ph” for “Mu-Phe-HPhe-O-Ph”

bone resorption = test: In vivo bone resorption by urinary 14C-tetracycline excretion in rats
Description: Treatment of Osteo Arthritis with Mu-Phe-HPhe-O-Ph. The skeletons of young growing rats were radioactively labelled by injections with ^14 C-tetracycline over a 10 day period. The amount of bone resorption was then determined each day as the amount of radioactivity excreted in the urine. After 10 days of control excretion, test compounds were administered for three days subcutaneously and their effects on the daily excretion of tetracycline were determined. Tested compounds were dissolved in DMSO/PEG at a concentration of 25 mg/ml and were injected once per day subcutaneously in a volume of 2 ml/kg. Treatment of Osteo Arthritis with Mu-Leu-HPhe-O-Ph. The skeletons of young growing rats were radioactively labelled by injections with ^14 C-tetracycline over a 10 day period. The amount of bone resorption was then determined each day as the amount of radioactivity excreted in the urine. After 10 days of control excretion, test compounds were administered for three days subcutaneously and their effects on the daily excretion of tetracycline were determined. Tested compounds were dissolved in DMSO/PEG at a concentration of 25 mg/ml and were injected once per day subcutaneously in a volume of 2 ml/kg.

[2] = tested on: Soluble extracts of P. vinckei; test: Proteolytic activity of P. vinckei soluble extracts, substrate Z-Phe-Arg-AFC; type: biochemical; details: read-out: IC50, proteolytic activity of P. vinckei extract
Description: (§2) Treatment of Malaria with Mu-Phe-HPhe-O-Ph. Soluble extracts of P. falciparum and P. vinckei were prepared and proteolytic activity was assayed with fluorogenic peptide substrate Z-Phe-Arg-AFC. The activity of control samples was compared with activities in the presence of multiple concentrations of Mu-Phe-HPhe-O-Ph. The concentrations at which activity was inhibited by 50% (IC50) was calculated.
as §2, with “with Mu-Leu-HPhe-O-Ph.” for “with Mu-Phe-HPhe-O-Ph.”, “of Mu-Leu-HPhe-O-Phe.” for “of Mu-Phe-HPhe-O-Ph.”, “The concentration” for “The concentrations”, “by 50%.” for “by 50%”
as §2, with “with Mu-Phe-Arg(NO2)-O-Ph.” for “with Mu-Phe-HPhe-O-Ph.”, “of Mu-Phe-Arg(NO2)-O-Ph.” for “of Mu-Phe-HPhe-O-Ph.”, “The concentration” for “The concentrations”
as §2, with “with Mu-Tyr(OCH3)2 -HPhe-O-Ph.” for “with Mu-Phe-HPhe-O-Ph.”, “samples as” for “samples was”, “of Mu-Tyr(OCH3)2 -HPhe-O-Ph.” for “of Mu-Phe-HPhe-O-Ph.”, “The concentration” for “The concentrations”

O=C(O)Cc1ccccc1OCC(=O)[C@H](CCc1ccccc1)NC(=O)[C@H](Cc1ccccc1)NC(=O)N1CCOCC1 [Mu-Phe-HPhe-O-Ph, (4-morpholinylcarbonyl)-L-phenylalanyl-L-homophenylalanyl-(2-carboxymethyl)phenoxymethyl ketone]
inhibition of the rate of 45Ca2+-release ([1]; 1 μm inhibitor): 50%
additional inhibition of the rate of 45Ca2+-release ([1]; 100 μm inhibitor): 20%
inhibition of bone resorption in vivo as measured by tetracycline excretion (bone resorption; subcutaneous once per day for three days, 25 mg/ml in DMSO/PEG, 2 ml/kg): as great as that of a maximal dose of calcitonin
time of maximum effect after dosing commenced (bone resorption; subcutaneous once per day, 25 mg/ml, 2 ml/kg): 24 h
findings at the sites of injection at end of experiment (bone resorption; subcutaneous, DMSO/PEG, three days, histology: inflammation of subcutaneous fat, tissue necrosis): lesions were visible at the sits of injection
pIC50 [2]: 8.29

Reference: patent publication US5374623A, “Cysteine protease inhibitors effective for in vivo use” (Prototek, Inc., priority 1992, dated 1994)
